Data: ChEMBL document CHEMBL1152634, “Synthesis and evaluation of novel alpha-heteroaryl-phenylpropanoic acid derivatives as PPARalpha/gamma dual agonists” (Bioorg Med Chem, 2009)

Assays:
[1] = AUC in rat at 1 mg/kg, iv; type: ADME, organism-based; design: dose 1 mg/kg, route intravenous; details: plasma
[2] = Half life in rat at 1 mg/kg, iv; type: ADME, organism-based; design: dose 1 mg/kg, route intravenous; details: in vivo
[3] = Clearance in rat at 1 mg/kg, iv; type: ADME, organism-based; design: dose 1 mg/kg, route intravenous; details: in vivo
[4] = Volume of distribution at steady state in rat at 1 mg/kg, iv; type: ADME, organism-based; design: dose 1 mg/kg, route intravenous; details: in vivo, read-out: Vdss
[5] = AUC in rat at 3 mg/kg, po; type: ADME, organism-based; design: dose 3 mg/kg, route oral; details: plasma
[6] = Oral bioavailability in rat at 3 mg/kg, po; type: ADME, organism-based; details: in vivo
[7] = AUC in dog at 1 mg/kg, iv; type: ADME, organism-based, Canis lupus familiaris; design: dose 1 mg/kg, route intravenous; details: plasma
[8] = Volume of distribution at steady state in dog at 1 mg/kg, iv; type: ADME, organism-based, Canis lupus familiaris; design: dose 1 mg/kg, route intravenous; details: in vivo, read-out: Vdss
[9] = AUC in dog at 3 mg/kg, po; type: ADME, organism-based, Canis lupus familiaris; design: dose 3 mg/kg, route oral; details: plasma
[10] = Oral bioavailability in dog at 3 mg/kg, po; type: ADME, organism-based, Canis lupus familiaris; details: in vivo
[11] = Half life in dog at 1 mg/kg, iv; type: ADME, organism-based, Canis lupus familiaris; design: dose 1 mg/kg, route intravenous; details: in vivo
[12] = Clearance in dog at 1 mg/kg, iv; type: ADME, organism-based, Canis lupus familiaris; design: dose 1 mg/kg, route intravenous; details: in vivo

SMILES: Cc1oc(-c2ccccc2)nc1CCCc1ccc(C[C@@H](C(=O)O)n2nccn2)cc1
- AUC [1]: 928 ng·h/mL
- half-life [2]: 7.5 h
- clearance [3]: 18 mL/min/kg
- Vd [4]: 2.9 L/kg
- AUC [5]: 1170 ng·h/mL
- bioavailability [6]: 42%
- AUC [7]: 3970 ng·h/mL
- Vd [8]: 0.82 L/kg
- AUC [9]: 13000 ng·h/mL
- bioavailability [10]: > 95%
- half-life [11]: 5.8 h
- clearance [12]: 4.4 mL/min/kg
